These results are taken from patent US10105357B2, “Indication of antibiotic drugs for preparation of cancer inhibition pharmaceutical composition” (LAUNX BIOMEDICAL CO., LTD., priority 2014, dated 2018).

Where a name gives a salt, the structure may show the parent alone. Read-outs that look alike come from different tables or passages of the source.

Format in all cases: cell-based, human
The subject of assay [1] is cancer cell lines. As to the kind of experiment: Cell viability analysis (WST-1) on cancer cell lines. Particulars: drug 10 μM, 72 hours, WST-1; Table 3.
The test system of assay [2] is HI650 (Lung Adenocarcinoma). In words: Cell viability analysis, lung cancer HI650. Conditions: Homo sapiens, NCI-H1650, 72 h.
The subject of assay [3] is A549 (Lung Adenocarcinoma). As to the kind of experiment: Cell viability analysis, lung cancer A549. Particulars: Homo sapiens, A549, 72 h.
Assay [4] has as its system AGS (Gastric Adenocarcinoma). In words: Cell viability analysis, gastric cancer AGS. Particulars: Homo sapiens, 72 h.
For assay [5], the system named is MKN-45 (Gastric Adenocarcinoma). In words: Cell viability analysis, gastric cancer MKN-45. Conditions: Homo sapiens, MKN-45, 72 h.
The test system of assay [6] is HepG2 (Hepatocellular Carcinoma). In words: Cell viability analysis, hepatic cancer HepG2. Particulars: Homo sapiens, HepG2, 72 h.
For assay [7], the system named is LoVo (Colorectal Adenocarcinoma). As to the kind of experiment: Cell viability analysis, colon cancer LoVo. Particulars: Homo sapiens, LoVo, 72 h, read-out: cell viability (survival rate), LoVo, drug 10 μM, 72 hours, WST-1, OD450 nm. (In general: Formazan colour is commonly taken as a measure of viable cells.)
Assay [8] relates to A375 (Amelanotic Melanoma). As to the kind of experiment: Cell viability analysis, skin cancer A375. Conditions: Homo sapiens, A-375, 72 h.
Assay [9] has as its system HeLa (Cervix Adenocarcinoma). As to the kind of experiment: Cell viability analysis, cervical cancer HeLa. Particulars: Homo sapiens, HeLa, 72 h.
Assay [10] deals with PC3 (p53−) (Prostate Adenocarcinoma). As to the kind of experiment: Cell viability analysis, prostate cancer PC3. Particulars: Homo sapiens, 72 h.
For assay [11], the system named is TSGH-8301 (Urinary Bladder Carcinoma). As to the kind of experiment: Cell viability analysis, bladder cancer TSGH-8301. Conditions: Homo sapiens, 72 h.
The subject of assay [12] is MCF7 (Mammary Gland, Adenocarcinoma). As to the kind of experiment: Cell viability analysis, breast cancer MCF7. Conditions: Homo sapiens, MCF7, 72 h.
The subject of assay [13] is HL-60 (Acute Promyelocytic Leukemia). As to the kind of experiment: Cell viability analysis, leukemia HL-60. Particulars: Homo sapiens, HL-60, 72 h.
Where [14] appears, read: read-out: cell viability (survival rate), H1650, drug 10 μM, 72 hours, WST-1, OD450 nm.
The mark [15] stands for this setting: read-out: cell viability (survival rate), A549, drug 10 μM, 72 hours, WST-1, OD450 nm.
Setting [16] is: read-out: cell viability (survival rate), AGS, drug 10 μM, 72 hours, WST-1, OD450 nm.
[17] abbreviates: read-out: cell viability (survival rate), MKN-45, drug 10 μM, 72 hours, WST-1, OD450 nm.
[18] abbreviates: read-out: cell viability (survival rate), HepG2, drug 10 μM, 72 hours, WST-1, OD450 nm.
Setting [19] is: read-out: cell viability (survival rate), A375, drug 10 μM, 72 hours, WST-1, OD450 nm.
[20] abbreviates: read-out: cell viability (survival rate), HeLa, drug 10 μM, 72 hours, WST-1, OD450 nm.
Setting [21] is: read-out: cell viability (survival rate), PC3, drug 10 μM, 72 hours, WST-1, OD450 nm.
Where [22] appears, read: read-out: cell viability (survival rate), TSGH, drug 10 μM, 72 hours, WST-1, OD450 nm.
[23] abbreviates: read-out: cell viability (survival rate), MCF7, drug 10 μM, 72 hours, WST-1, OD450 nm.
Setting [24] is: read-out: cell viability (survival rate), HL-60, drug 10 μM, 72 hours, WST-1, OD450 nm.
The mark [25] stands for this setting: drug 10 μM, 72 hours, WST-1, OD450 nm, read-out: cell viability (survival rate), H1650.
Where [26] appears, read: drug 10 μM, 72 hours, WST-1, OD450 nm, read-out: cell viability (survival rate), A549.
[27] abbreviates: drug 10 μM, 72 hours, WST-1, OD450 nm, read-out: cell viability (survival rate), AGS.
Where [28] appears, read: drug 10 μM, 72 hours, WST-1, OD450 nm, read-out: cell viability (survival rate), MKN-45.
Where [29] appears, read: drug 10 μM, 72 hours, WST-1, OD450 nm, read-out: cell viability (survival rate), HepG2.
The mark [30] stands for this setting: drug 10 μM, 72 hours, WST-1, OD450 nm, read-out: cell viability (survival rate), A375.
The mark [31] stands for this setting: drug 10 μM, 72 hours, WST-1, OD450 nm, read-out: cell viability (survival rate), HeLa.
[32] abbreviates: drug 10 μM, 72 hours, WST-1, OD450 nm, read-out: cell viability (survival rate), PC3.
The mark [33] stands for this setting: drug 10 μM, 72 hours, WST-1, OD450 nm, read-out: cell viability (survival rate), TSGH.
The mark [34] stands for this setting: drug 10 μM, 72 hours, WST-1, OD450 nm, read-out: cell viability (survival rate), MCF7.
Where [35] appears, read: drug 10 μM, 72 hours, WST-1, OD450 nm, read-out: cell viability (survival rate), HL-60.

As a reminder, the viability is a read-out of living cells in per cent, often relative to untreated cells. `CCCCCCCCCC(=O)N[C@@H](Cc1c[nH]c2ccccc12)C(=O)N[C@H](CC(N)=O)C(=O)N[C@@H](CC(=O)O)C(=O)N[C@@H]1C(=O)NCC(=O)N[C@@H](CCCN)C(=O)N[C@@H](CC(=O)O)C(=O)N[C@H](C)C(=O)N[C@@H](CC(=O)O)C(=O)NCC(=O)N[C@H](CO)C(=O)N[C@@H]([C@H](C)CC(=O)O)C(=O)N[C@@H](CC(=O)c2ccccc2N)C(=O)O[C@@H]1C` [Daptomycin]: the “inhibition effect on different cancer cell lines” value in assay [1] is “significant inhibition effect”. In addition, the viability at 10 µM in assay [2] (setting [14]) stood at 76.3%; in assay [3] (setting [15]) it was 74%; in [4] (setting [16]), 63%; in [5] (setting [17]), 92.1%; in [6] (setting [18]), 95.9%; in [7] it was 90.9%. The viability at 10 µM is 81.2% in [8] (setting [19]); 114% in [9] (setting [20]); 79.7% in assay [10] (setting [21]); 56.8% in assay [11] (setting [22]); 85.3% in [12] (setting [23]); 108% in [13] (setting [24]).
Take `COc1cc2nc(N3CCN(C(=O)C4CCCO4)CC3)nc(N)c2cc1OC` (stereo not drawn) [Terazos in HCl (Hytrin), Terazosin HCl]: the “inhibition effect on different cancer cell lines” value in [1] was “significant inhibition effect”. Moreover, the viability at 10 µM in assay [2] (setting [14]) worked out at 74.9%; in assay [3] (setting [15]) it was 21.3%; in assay [4] (setting [16]) it was 56.8%; in [5] (setting [17]) it was 82.1%; in assay [6] (setting [18]) it was 93.4%; in [7], 45.7%. Besides, the viability at 10 µM in assay [8] (setting [19]) turned out to be 77.9%; in assay [9] (setting [20]), 60.7%; in assay [10] (setting [21]), 40.5%; in assay [11] (setting [22]), 71.6%; in assay [12] (setting [23]), 33.4%; in [13] (setting [24]) it was 111%.
Regarding `CCCCCCCCCCCCCCCCCCCCCCO` [Docosanol (Abreva), Docosanol], the “inhibition effect on different cancer cell lines” value in assay [1] is on record as “significant inhibition effect”. The viability at 10 µM turned out to be 69.3% in [2] (setting [25]); 44% in assay [3] (setting [26]); 40.6% in assay [4] (setting [27]); 52.4% in assay [5] (setting [28]); 83.6% in assay [6] (setting [29]); 89.4% in assay [7]. Moreover, the viability at 10 µM in [8] (setting [30]) is 84.6%; in assay [9] (setting [31]), 76.9%; in [10] (setting [32]) it was 70.2%; in assay [11] (setting [33]), 54.8%; in assay [12] (setting [34]) it was 39.1%; in [13] (setting [35]), 116%.
Consider `CN(C/C=C/c1ccccc1)Cc1cccc2ccccc12` [Naftifine HCl], for which the “inhibition effect on different cancer cell lines” value in assay [1] is on record as “significant inhibition effect”. Further, the viability at 10 µM came to 72.3% in assay [2] (setting [14]); 127% in assay [3] (setting [15]); 104% in assay [4] (setting [16]); 58.5% in assay [5] (setting [17]); 91.2% in assay [6] (setting [18]); 86.3% in [7]. Moreover, the viability at 10 µM in [8] (setting [19]) stood at 63.3%; in [9] (setting [20]), 80.6%; in [10] (setting [21]) it was 109%; in [11] (setting [22]) it was 79.6%; in assay [12] (setting [23]) it was 84.5%; in [13] (setting [24]), 93.2%.
On to `O=C(O)c1cccnc1Nc1cccc(C(F)(F)F)c1` [Niflumic acid], for which the “inhibition effect on different cancer cell lines” value in assay [1] is reported as “significant inhibition effect”. For the same compound, the viability at 10 µM in assay [2] (setting [25]) amounted to 50.8%; in [3] (setting [26]), 99.2%; in assay [4] (setting [27]), 40.5%; in assay [5] (setting [28]), 68.7%; in assay [6] (setting [29]) it was 87.4%; in assay [7], 82%. Besides, the viability at 10 µM in assay [8] (setting [30]) amounted to 50%; in assay [9] (setting [31]), 51.9%; in assay [10] (setting [32]), 111%; in assay [11] (setting [33]), 66.8%; in assay [12] (setting [34]), 86.9%; in [13] (setting [35]), 132%.
Regarding `CC(N)C12CC3CC(CC(C3)C1)C2` (stereo not drawn) [Rimantadine (Flumadine), Rimantadine], the “inhibition effect on different cancer cell lines” value in assay [1] was “significant inhibition effect”. The viability at 10 µM in assay [2] (setting [25]) was 96.9%; in assay [3] (setting [26]) it was 111%; in assay [4] (setting [27]), 90.8%; in assay [5] (setting [28]), 82.3%; in [6] (setting [29]), 87.7%; in assay [7], 95.7%. The viability at 10 µM amounted to 70.3% in assay [8] (setting [30]); 71.1% in [9] (setting [31]); 91.3% in assay [10] (setting [32]); 126% in assay [11] (setting [33]); 97.1% in [12] (setting [34]); 107% in [13] (setting [35]).
With `CC(C)(C)c1nc(-c2cccc(NS(=O)(=O)c3c(F)cccc3F)c2F)c(-c2ccnc(N)n2)s1` [Dabrafenib (GSK2118436), Dabrafenib], the “inhibition effect on different cancer cell lines” value in assay [1] is recorded as “significant inhibition effect”. The viability at 10 µM was found to be 73.6% in assay [2] (setting [25]); 134% in assay [3] (setting [26]); 90.1% in [4] (setting [27]); 98.7% in assay [5] (setting [28]); 91.3% in assay [6] (setting [29]); 70.5% in assay [7]. For the same compound, the viability at 10 µM in [8] (setting [30]) worked out at 42.1%; in assay [9] (setting [31]) it was 78.5%; in [10] (setting [32]), 100%; in assay [11] (setting [33]), 90.5%; in assay [12] (setting [34]) it was 94.1%; in assay [13] (setting [35]), 72.9%.
On to `CCc1cc(C(N)=S)ccn1` [Ethionamide], for which, in assay [1], the “inhibition effect on different cancer cell lines” value is “significant inhibition effect”. Further, the viability at 10 µM in assay [2] (setting [14]) is 78.3%; in assay [3] (setting [15]) it was 42.4%; in assay [4] (setting [16]), 53.7%; in assay [5] (setting [17]) it was 45.4%; in assay [6] (setting [18]), 97.7%; in [7], 86.5%. For the same compound, the viability at 10 µM in assay [8] (setting [19]) worked out at 76.6%; in [9] (setting [20]), 44.8%; in assay [10] (setting [21]), 85.3%; in [11] (setting [22]) it was 53.2%; in assay [12] (setting [23]), 36.4%; in [13] (setting [24]) it was 102%.
Regarding `Nc1ccn(C[C@@H](CO)OCP(=O)(O)O)c(=O)n1` [Cidofovir (Vistide), Cidofovir], in [1], the “inhibition effect on different cancer cell lines” value is listed as “significant inhibition effect”. In addition, the viability at 10 µM was found to be 53.3% in assay [2] (setting [25]); 58.3% in assay [3] (setting [26]); 39.6% in assay [4] (setting [27]); 56.9% in assay [5] (setting [28]); 97.2% in [6] (setting [29]); 82.3% in [7]. Besides, the viability at 10 µM in assay [8] (setting [30]) worked out at 82.6%; in assay [9] (setting [31]), 82.1%; in assay [10] (setting [32]) it was 63.9%; in assay [11] (setting [33]) it was 49.8%; in assay [12] (setting [34]) it was 78.3%; in assay [13] (setting [35]), 112%.
